“Also recorded” adds a separate entry of the source.
How the values were obtained:
[1] = biological target: T1, Arabidopsis ABAR/CHLH (H subunit of Mg-chelatase) (Arabidopsis thaliana, UniProt Q9FNB0); experiment: ABA binding assay with purified yeast-expressed ABAR/CHLH
T1 construct: 6xHis; made in house; host or cells: Pichia methanolica (Pichia Methanolica Expression kit, Invitrogen)
T1 sequence (Q9FNB0 50-1381): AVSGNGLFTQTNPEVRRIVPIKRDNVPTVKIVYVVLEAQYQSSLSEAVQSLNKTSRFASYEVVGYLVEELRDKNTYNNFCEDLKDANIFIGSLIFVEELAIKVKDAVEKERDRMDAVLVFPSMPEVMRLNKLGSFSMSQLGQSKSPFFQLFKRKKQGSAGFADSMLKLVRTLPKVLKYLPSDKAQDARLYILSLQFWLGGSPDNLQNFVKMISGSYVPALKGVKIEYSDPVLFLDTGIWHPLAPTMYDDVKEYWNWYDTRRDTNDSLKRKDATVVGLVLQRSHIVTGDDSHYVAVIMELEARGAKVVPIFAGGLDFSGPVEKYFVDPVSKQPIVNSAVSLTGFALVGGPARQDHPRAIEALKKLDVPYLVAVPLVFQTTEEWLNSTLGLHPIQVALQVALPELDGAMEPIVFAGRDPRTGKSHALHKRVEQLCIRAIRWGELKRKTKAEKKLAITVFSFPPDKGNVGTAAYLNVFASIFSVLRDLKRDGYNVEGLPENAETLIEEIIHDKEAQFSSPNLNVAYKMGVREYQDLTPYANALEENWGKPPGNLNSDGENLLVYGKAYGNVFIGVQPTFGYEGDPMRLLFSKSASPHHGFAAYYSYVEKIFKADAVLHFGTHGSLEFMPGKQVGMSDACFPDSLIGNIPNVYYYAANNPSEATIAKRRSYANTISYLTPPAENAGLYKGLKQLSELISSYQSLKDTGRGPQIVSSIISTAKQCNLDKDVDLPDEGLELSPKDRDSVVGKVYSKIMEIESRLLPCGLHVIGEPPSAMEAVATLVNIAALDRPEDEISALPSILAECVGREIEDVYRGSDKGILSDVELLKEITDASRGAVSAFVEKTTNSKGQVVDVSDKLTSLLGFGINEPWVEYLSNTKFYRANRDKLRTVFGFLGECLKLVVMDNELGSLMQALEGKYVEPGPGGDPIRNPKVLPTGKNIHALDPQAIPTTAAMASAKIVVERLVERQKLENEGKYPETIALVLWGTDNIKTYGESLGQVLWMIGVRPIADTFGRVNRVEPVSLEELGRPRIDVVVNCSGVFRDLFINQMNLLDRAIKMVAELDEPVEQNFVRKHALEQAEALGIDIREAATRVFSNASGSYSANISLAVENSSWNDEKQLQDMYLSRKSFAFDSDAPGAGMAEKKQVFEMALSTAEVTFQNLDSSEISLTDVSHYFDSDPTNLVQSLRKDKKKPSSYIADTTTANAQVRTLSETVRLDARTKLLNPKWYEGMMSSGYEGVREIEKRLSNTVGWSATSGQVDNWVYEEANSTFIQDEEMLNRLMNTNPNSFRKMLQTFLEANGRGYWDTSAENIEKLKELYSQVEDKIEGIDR
Description: Full-length ABAR/CHLH coding sequence was PCR-amplified with forward primer 5′-[…]-3′ (SEQ ID NO:30) and reverse primer 5′-[…]-3′ (SEQ ID NO:31). The recombinant ABAR/CHLH was expressed in yeast as a fusion protein with a 6×His (SEQ ID NO:32) tag by using Pichia Methanolica Expression kit (Invitrogen) and the fusion protein was affinity-purified according to manufacturer's instructions.
The ABA-binding activity of ABAR was assayed according to the previously described procedures (Zhang, D. P. et al., Plant physiol. 128:714-725 (2002)) with modifications. The binding medium (medium A) contained 50 mM Tris-HCl (pH 7.0), 2 mM MgCl2, 1 mM CaCl2, and 250 mM mannitol. The medium for extracting the Arabidopsis natural ABAR/CHLH protein (medium B) was the medium A supplemented with 2 mM 1,4-dithiothreitol (DTT), 1 mM phenylmethyl sulfonyl fluoride (PMSF), […] leupeptin, and […] pepstin A but minus 250 mM mannitol. [^3H](+)ABA (American Radiolabeled Chemicals, 2.37×10^12 Bq mmol^−1, purity 98.4%) at 30 nM, or at a step gradient of concentrations from 0 to 70 nM (when analyzing ABA binding kinetics, see FIG. 1a, d1), together with 2 μg purified yeast-expressed ABAR/CHLH protein or 50 μg proteins of the crude extracts from two-week-old Arabidopsis seedlings, was added into the medium A. The total volume for the binding assays was adjusted to 200 μl. The mixtures were incubated at 25° C. for 30 min, and then quickly placed on ice. Following the addition of 100 μl 0.5% (w/v) Dextran T70-coated charcoal (DCC) to remove the free [^3H]ABA by adsorption, the mixtures were maintained on ice for 5 min, and then centrifuged to remove DCC before the radioactivity in the supernatant was counted. The specific binding was determined by the difference between the radioactivity bound to the immuno-purified ABAR protein or crude extracts of Arabidopsis seedlings incubated only with [^3H]ABA (total binding) and radioactivity bound in the presence of 1,000-fold molar excess of unlabeled (+)-ABA (Sigma; non-specific binding. Non-specific binding in all the assays was lower than 10% of the total binding, see FIG. 1a, d1). The unlabeled ABA was added into the incubation medium at the same time with [^3H]ABA. The ABA-binding activity of the crude ABA-binding protein from Arabidopsis seedling was expressed as the number of nanomoles of [^3H]ABA specifically bound per gram of protein, and that of the immuno-purified ABAR protein as the number of moles of [^3H]ABA per mole of protein. The stereo-specificity of the ABA-binding was assayed as described previously (Zhang, D. P. et al., Plant physiol. 128:714-725 (2002)). […] The conditions of incubation were the same as described above (the incubation medium containing 30 nM [^3H]ABA), and the two ABA isomers and (+)-ABA were assayed in the concentrations ranging from 1 to 1000-fold molar excess of [^3H]ABA.

gl1 seedlings = experiment: Effects of ABA in vivo on chlorophyll, porphyrins and ABAR/CHLH protein; set-up: species or system Arabidopsis thaliana; conditions: exogenous ABA treatment, 10 d
Description: The contents of chlorophyll, protoporphyrin IX and Mg-protoporphyrin IX were assayed essentially by the previously described procedures (Mochizuki, N. et al., Proc. Natl. Acad. Sci. USA 98:2053-2058 (2001)).
For the effects of ABA in vivo, the seeds of the ecotype gl1 were germinated after stratification on common MS medium and 48 h later transferred to MS medium supplemented with different concentrations of ABA. 10 d later, the contents of chlorophyll and porphyrins including of protoporphyrin IX and Mg-protoporphyrin IX were measured. At the same time total proteins were extracted from leaves for testing the amounts of ABAR/CHLH protein by immunoblotting.

CC1=CC(=O)CC(C)(C)C1(O)/C=C/C(C)=C\C(=O)O (stereo not drawn) [ABA, abscisic acid]
Kd [1]: 32 nM | maximum binding (Bmax) ([1]; pure yeast-expressed ABAR, Scatchard plot): 1.28 mol ABA per mol of protein | MgProto contents (gl1 seedlings): enhances | Proto contents (gl1 seedlings): significantly decreased; also recorded: decreases | chlorophyll contents (gl1 seedlings): significantly decreased; also recorded: decreases | ABAR expression (protein levels) (gl1 seedlings; immunoblotting): stimulated; also recorded: enhances

— US20090044291A1, “DROUGHT-RESISTANT PLANTS AND METHOD FOR PRODUCING THE PLANTS” (D-Helix, priority 2006, published 2009)
